Patent publication US20050281890A1 (priority 2004, published 2005)
Read-outs that look alike come from different tables or passages of the source.

Key:
wound blood flow = details: 1.25 micromole/wound, days 0-4, once daily; post-heal tissue; vs placebo saline
Method: (§1) FIG. 4. […] Paired excisional wounds (FIG. 2) were either treated with placebo saline or H2O2 (1.25 micromole/wound, days0-4, once daily). Wound-edge tissue was collected at indicated times after wounding. A. Ribonuclease protection assay (RPA) showing kinetics of angiogenesis-related mRNA expression in a placebo-treated wound. […] C. Blood flow imaging of wounds was performed non-invasively using a Laser Doppler blood flow imaging device. Images reflecting the blood flow (right panel) and a digital photo (region of interest; left panel) from post-heal tissue are shown. Data i.e., mean±SD of the blood flow is presented (bar graph). The mean represents the arithmetic mean of all valid blood flow values for pixels within the region of interest.
(§2) Paired excisional wounds were either treated with placebo saline or H2O2 (1.25 micromole/wound, days 0-4, once daily). Wound-edge tissue was collected at indicated times after wounding.
Images reflecting the blood flow (right panel) and a digital photo (region of interest; left panel) from post-heal tissue are shown. […] The mean represents the arithmetic mean of all valid blood flow values for pixels within the region of interest.

keratin 14 = details: p47phox knockout mice; 1.25 micromoles/wound, days 0-4; day 18 post-wounding, after closure
Method: Two excisional wounds (FIG. 2) were-laced on the dorsal skin of 8 wk old C57BL/6, MCP-1 or p47phox KO mice. Each of the two wounds was treated with either saline or H2O2 (1.25 micromoles/wound; days 0-4). […] C. […] D. Keratin 14 (green fluorescence) expression in skin of p47phox KO mice harvested from wound sites after closure on day 18 post-wounding.
Briefly, two excisional wounds were placed on the dorsal skin of eight-week-old C57BL/6, MCP-1 or p47^phox knockout mice. Each of the two wounds was treated with either saline or H2O2 (1.25 micromoles/wound; days 0-4).

[1] = test system: focal adhesion kinase (FAK); details: HMEC-1 microvascular endothelial cells; various doses, 0.1 mM for kinetics
Method: Human microvascular endothelial cells (HMEC-1) were treated with H2O2 for indicated dose and duration. Phosphorylation of FAK was detected using Western blot and phosphorylation site-specific antibodies against FAK. Native FAK or β-actin was blotted to show equal loading. A. Effect of various dose of H2O2 treatment on phosphorylation (Ty 925) state of FAK. B. Kinetics of site-specific activation phophorylation of FAK in HMEC cells following H2O2 (0.1 mM) treatment.
Human microvascular endothelial cells (HMEC-1) were treated with H2O2 for indicated dose and duration. Phosphorylation of FAK was detected using Western blot and phosphorylation site-specific antibodies against FAK. Native FAK or β-actin was blotted to show equal loading.

[2] = test system: 8×16-mm full-thickness excisional wounds; details: for wound closure: p<0.05
Method: FIG. 3. […] Two 8×16 mm full-thickness excisional wounds (inset) were placed on the dorsal skin of C57BL/6 male mice (8 wk old). […] For determination of surface microflora, wounds (treated with either 1.25 micromole H2O2/wound, open bar, or saline, closed bar) were swabbed (24-48 h post wounding) for 20 sec with an alginate-tipped applicator. Quantitative assessment of surface bacterial load was performed. For deep tissue wound microflora, 48 h after wounding eschar tissue was removed, wound bed tissue underneath eschar was sampled and quantitative assessment of bacterial load was performed. Values shown represent mean±SD of CFU of four observations. C.
Briefly, two 8×16-mm full-thickness excisional wounds (FIG. 3, insets) were placed on the dorsal skin of C57BL/6 male mice (8 weeks old). Each of the two wounds was topically treated either with H2O2 or saline.

[3] = test system: focal adhesion kinase (FAK); details: wound-edge tissue, 1.25 micromole/wound, 30 minutes after wounding
Method: Human microvascular endothelial cells (HMEC-1) were treated with H2O2 for indicated dose and duration. Phosphorylation of FAK was detected using Western blot and phosphorylation site-specific antibodies against FAK. Native FAK or β-actin was blotted to show equal loading. […] B. Kinetics of site-specific activation phophorylation of FAK in HMEC cells following H2O2 (0.1 mM) treatment. […] Paired excisional wounds (FIG. 2) were either treated with placebo saline or H2O2 (1.25 micromole/wound). Wound-edge tissue was collected 30 min after wounding. FAK phosphorylation in wound edge tissue was determined using Western blot. Data from three animals (#1-#3) are shown.
In FIG. 5C, paired excisional wounds were either treated with placebo saline or H2O2 (1.25 micromole/wound). Wound-edge tissue was collected 30 minutes after wounding. FAK phosphorylation in wound edge tissue was determined using Western blot. Data from three animals (#1-#3) are shown.

CD31 = details: 1.25 micromole/wound, days 0-4; day 8 post-wounding; vs control
Method: as §1, §2

Flt-1 mRNA = details: 1.25 micromole/wound, once daily, days 0-4; wound-edge tissue
Method: as §1, §2

VEGF mRNA = details: 1.25 micromole/wound, once daily, days 0-4; wound-edge tissue
Method: as §1, §2

## OO [H2O2, hydrogen peroxide]
Wound blood flow
  blood flow: increased blood flow
Keratin 14
  keratin 14 expression: comparable to normal skin
[1]
  phosphorylation of FAK: Induced Phosphorylation
[2]; 62.5 micromoles/wound (0.025 ml of 7.5% solution), once on day 0
  tissue damage / survival: caused necrotic tissue damage and severe injury, leading to death of the mice
[2]; high dose 25 micromoles/wound (0.025 ml of 3% solution), once daily days 0-4, compared to low dose 1.25 micromoles/wound
  wound closure: adversely affected closure
[2]; low-dose 1.25 micromoles/wound (0.025 ml of 0.15% solution), topical, once daily, days 0-4, vs placebo saline side
  wound closure: facilitated closure moderately
[3]
  phosphorylation of FAK: Induced Phosphorylation
CD31
  vascularization (CD31 stain): better vascularization
Flt-1 mRNA
  wound-induced Flt-1 mRNA expression: further augmented
VEGF mRNA
  wound-induced VEGF mRNA expression: further augmented
